From US7985771B2, “Furanone derivatives” (Monsanto Technology LLC, priority 2002, dated 2011)

Columns and labels:
[1] = tested on: IL-1beta release from a mouse microglial cell line; assay: Interleukin-1 beta microglial cell assay; assay type: cell-based; settings: LPS and IFN gamma stimulation, 24 hours, read-out: inhibition of IL-1beta induction, EC50
Experimental: This assay measures the release of IL-1β from a mouse microglial cell line following an inflammatory challenge with LPS and interferon-gamma. The ability of test articles to inhibit microglial cell activation and IL-1beta release is determined by co-incubation of the test article with the inflammatory challenge. Cytokine release is measured using a mouse IL-1β ELISA and cell toxicity is determined using Cell Tracker Green (a fluorescent dye that measures cell viability).
Mouse microglial cells were seeded in poly-D-lysine coated 96-well plates at a density of 10,000 cells/well and allowed to attach for 24 hours. Cells were stimulated by addition of LPS (10 μg/ml) and IFN gamma (10 ng/ml) in the presence or absence of test article. The cells were then incubated for 24 hours at 37° C., after which time the media was removed and used for cytokine determination as described below.
Viability of mouse microglial cells after exposure to the test article was determined using a fluorescent viability dye, Cell Tracker Green. Cell Tracker Green was used at a working concentration of 5 μM in 1× HBSS. Cells were washed once with HBSS (200 μl/well) and 100 μl Cell Tracker Green was added to each well. Cells were then incubated at 37° C. for 30 minutes, after which time the Cell Tracker was removed and the cells were washed once with HBSS (200 μl/well). 100 μl fresh HBSS was added to each well and the plate was read on a Fluoroskan plate reader using an excitation wavelength of 485 nm and an emission wavelength of 538 nm.
1. The IL-1β capture antibody was reconstituted in 1 ml of PBS to give a final concentration of 720 μg/ml, and the working concentration was 4 μg/ml. For coating one 96-well plate (at 100 μl/well) 56 μl of the 720 μg/ml stock was diluted into 10 ml of PBS. 2. The IL-1β standards were reconstituted in 0.5 ml of Reagent Diluent (70 ng/ml). For a high standard of 1 ng/ml (2 wells at 100 μl each+enough for series dilution) 7.1 μl of the 70 ng/ml standard were diluted into 0.5 ml of Reagent Diluent 3. The IL-1β detection antibody was reconstituted in 1 ml of Reagent Diluent to give a final concentration of 18 μg/ml and the working concentration is 100 ng/ml. For one 96-well plate (at 100 μl/well) 56 μl of the 18 μg/ml stock was diluted into 10 ml of Reagent Diluent.
1. The Costar EIA Hi-binding plate was coated with capture antibody at 4 μg/ml. Each well was coated with 100 μl, and the plate was sealed and incubated overnight at room temperature.
2. Each well was aspirated and washed 3× with Wash Buffer. Each well was filled to the top, dispensed, and any remaining buffer was removed by inverting the plate and gently blotting against clean paper towels.
3. Non-specific binding sites were blocked by adding 300 μl of Blocking Buffer to each well, and after sealing incubating for at least 1 hour at room temperature.
5. 100 μl of either standard or sample were added in each well of the capture-coated and pre-blocked plate. The plate was sealed and incubated for 2 hours at room temperature, followed with washing as in step 2.
6. 100 μl of the detection antibody ([…]) were added to each well.
7. The plate was sealed and incubated at room temperature for 2 hours, followed with washing as in step 2.
8. 100 μl of the working dilution of Streptavidin-HRP was added, and the plate was sealed and incubated in the dark for 20 minutes at room temperature, followed with washing as in Step 2.
9. The fresh Substrate Solution was prepared by mixing Color Reagent A (H2O2) and Color Reagent B (Tetramethylbenzidine) in a 1:1 ratio. 100 μl of this Substrate Solution mixture was added to each well and the plate was incubated in the dark for 20 minutes at room temperature. 10. 50 μl of Stop Solution was added to each well, mixing was ensured by gently tapping. 11. Each plate was read with the Spectramax once at 450 nm. Results

[2] = tested on: ELAM (E-selectin) expression in endothelial cells; assay: E-selectin (ELAM) cell inflammation assay; assay type: cell-based; settings: LPS and IL-1β stimulation, read-out: reduction of expression of ELAM, EC50
Experimental: Endothelial-Leukocyte Adhesion Molecule (ELAM), also known as E-selectin, is expressed on the surface of endothelial cells. In this assay, lipopolysaccharide (LPS) and IL-1β are used to stimulate the expression of ELAM; test agents are tested for their abilities to reduce this expression, in accordance with studies showing that reduction of leukocyte adhesion to endothelial cell surface is associated with decreased cellular damage (e.g., Takada, M., Et al., Transplantation 64: 1520-25, 1997; Steinberg, J. B., et al., J. Heart Lung Trans. 13:306-313, 1994).
Endothelial cells may be selected from any of a number of sources and cultured according to methods known in the art; including, for example, coronary artery endothelial cells, human brain microvascular endothelial cells (HBMEC; Hess, D.C., et al., Neurosci. Left. 213(1): 37-40, 1996), or lung endothelial cells. Cells are conveniently cultured in 96-well plates. Cells are stimulated by adding a solution to each well containing 10 μg/ml LPS and 100 pg/ml IL-1β for 6 hours in the presence of test agent (specific concentrations and time may be adjusted depending on the cell type). Treatment buffer is removed and replaced with pre-warmed Fixing Solution® (100 μl/well) for 25 minutes at room temperature. Cells are then washed 3×, then incubated with Blocking Buffer (PBS+2% FBS) for 25 minutes at room temperature. Blocking Buffer containing Monoclonal E-Selectin Antibody (1:750, Sigma Catalog #S-9555) is added to each well. Plates are sealed and stored at 4° overnight. Plates are washed 4× with 160 μL Blocking Buffer per well. Second Antibody-HRP diluted 1:5000 in Blocking Buffer is then added (100 μL/well), and plates are incubated at room temperature (protected from light) for two hours. Plates are then washed 4× with Blocking Buffer before addition of 100 μL of ABTS Substrate solution at room temperature (Zymed, Catalog #00-2024). Wells are allowed to develop for 35 minutes, before measurement at 402 nm in a Fluoroskan® Reader with shake program for 10 seconds. Positive results are recorded as a decrease in ELAM concentration in tested wells, as compared to control wells.

EC50 [1] | EC50 [2] | SMILES
≤ 20 µM | – | CCOC(=O)C1(CSc2nccc(C)n2)OC(=O)C(O)=C1Sc1nccc(C)n1 (stereo not drawn) [4-Hydroxy-3-(4-methyl-pyrimidin-2-ylsulfanyl)-2-(4-methyl-pyrimidin-2-ylsulfanylmethyl)-5-oxo-2,5-dihydro-furan-2-carboxylic acid ethyl ester]
≤ 20 µM | – | CCOC(=O)C1(CSCc2ccc(OC)cc2)OC(=O)C(O)=C1SCc1ccc(OC)cc1 (stereo not drawn) [4-Hydroxy-3-(4-methoxy-benzylsulfanyl)-2-(4-methoxy-benzylsulfanylmethyl)-5-oxo-2,5-dihydro-furan-2-carboxylic acid ethyl ester]
≤ 20 µM | – | O=C1OC(CO)(CSc2nc3ccccc3o2)C(Sc2nc3ccccc3o2)=C1O (stereo not drawn) [4-(Benzooxazol-2-ylsulfanyl)-5-(benzooxazol-2-ylsulfanylmethyl)-3-hydroxy-5-hydroxymethyl-5H-furan-2-one]
≤ 20 µM | – | CCOC(=O)C1(CSc2ncccn2)OC(=O)C(O)=C1Sc1ncccn1 (stereo not drawn) [4-Hydroxy-5-oxo-3-(pyrimidin-2-ylsulfanyl)-2-(pyrimidin-2-ylsulfanylmethyl)-2,5-dihydro-furan-2-carboxylic acid ethyl ester]
≤ 20 µM | ≤ 30 µM | CCOC(=O)C1(CSc2nc3ccccc3n2C)OC(=O)C(O)=C1Sc1nc2ccccc2n1C (stereo not drawn) [4-Hydroxy-3-(1-methyl-1H-benzoimidazol-2-ylsulfanyl)-2-(1-methyl-1H-benzoimidazol-2-ylsulfanylmethyl)-5-oxo-2,5-dihydro-furan-2-carboxylic acid ethyl ester]
≤ 20 µM | ≤ 30 µM | CCOC(=O)C1(CSc2nccc(C(F)(F)F)n2)OC(=O)C(O)=C1Sc1nccc(C(F)(F)F)n1 (stereo not drawn) [4-Hydroxy-5-oxo-3-(4-trifluoromethyl-pyrimidin-2-ylsulfanyl)-2-(4-trifluoromethyl-pyrimidin-2-ylsulfanylmethyl)-2,5-dihydro-furan-2-carboxylic acid ethyl ester]
≤ 20 µM | ≤ 30 µM | CCOC(=O)C1(CSc2nc3cc(OC)ccc3s2)OC(=O)C(O)=C1Sc1nc2cc(OC)ccc2s1 (stereo not drawn) [4-Hydroxy-3-(5-methoxy-benzothiazol-2-ylsulfanyl)-2-(5-methoxy-benzothiazol-2-ylsulfanylmethyl)-5-oxo-2,5-dihydro-furan-2-carboxylic acid ethyl ester]
≤ 20 µM | ≤ 30 µM | CCOC(=O)CSCC1(C(=O)OCC)OC(=O)C(OC(=O)C(C)(C)C)=C1SCC(=O)OCC (stereo not drawn) [4-(2,2-Dimethyl-propionyloxy)-3-ethoxycarbonylmethylsulfanyl-2-ethoxycarbonylmethylsulfanylmethyl-5-oxo-2,5-dihydro-furan-2-carboxylic acid ethyl ester]
≤ 20 µM | – | CCOC(=O)C1(CSCc2ccco2)OC(=O)C(OC(=O)C(C)(C)C)=C1SCc1ccco1 (stereo not drawn) [4-(2,2-Dimethyl-propionyloxy)-3-(furan-2-ylmethylsulfanyl)-2-(furan-2-ylmethylsulfanylmethyl)-5-oxo-2,5-dihydro-furan-2-carboxylic acid ethyl ester]

Continued, compound first:

SMILES | EC50 [1] | EC50 [2]
CC(C)OC(=O)C1(CSc2nc3ccccc3s2)OC(=O)C(O)=C1Sc1nc2ccccc2s1 (stereo not drawn) [3-(Benzothiazol-2-ylsulfanyl)-2-(benzothiazol-2-ylsulfanylmethyl)-4-hydroxy-5-oxo-2,5-dihydro-furan-2-carboxylic acid isopropyl ester] | ≤ 20 µM | ≤ 30 µM
CCOC(=O)C1(C(=O)OCC)OC(=O)C(O)=C1SCc1ccc(F)cc1 [3-(4-Fluoro-benzylsulfanyl)-4-hydroxy-5-oxo-5H-furan-2,2-dicarboxylic acid diethyl ester] | ≤ 20 µM | ≤ 30 µM
CCOC(=O)C1(CSCc2ccco2)OC(=O)C(O)=C1SCc1ccco1 (stereo not drawn) [3-(Furan-2-ylmethylsulfanyl)-2-(furan-2-ylmethylsulfanylmethyl)-4-hydroxy-5-oxo-2,5-dihydro-furan-2-carboxylic acid ethyl ester] | ≤ 20 µM | –
CCOC(=O)C1(CSCc2ccccc2)OC(=O)C(O)=C1SCc1ccccc1 (stereo not drawn) [3-Benzylsulfanyl-2-benzylsulfanylmethyl-4-hydroxy-5-oxo-2,5-dihydro-furan-2-carboxylic acid ethyl ester] | ≤ 20 µM | ≤ 30 µM
CCOC(=O)C1(CSCc2c(F)cccc2Cl)OC(=O)C(O)=C1SCc1c(F)cccc1Cl (stereo not drawn) [3-(2-Chloro-6-fluoro-benzylsulfanyl)-2-(2-chloro-6-fluoro-benzylsulfanylmethyl)-4-hydroxy-5-oxo-2,5-dihydro-furan-2-carboxylic acid ethyl ester] | ≤ 20 µM | ≤ 30 µM
COC(=O)C1(CSc2nc3ccccc3s2)OC(=O)C(O)=C1Sc1nc2ccccc2o1 (stereo not drawn) [3-(Benzooxazol-2-ylsulfanyl)-2-(benzothiazol-2-ylsulfanylmethyl)-4-hydroxy-5-oxo-2,5-dihydro-furan-2-carboxylic acid methyl ester] | ≤ 20 µM | –
CCCCSCC1(C(=O)OCC)OC(=O)C(O)=C1SCCCC (stereo not drawn) [3-Butylsulfanyl-2-butylsulfanylmethyl-4-hydroxy-5-oxo-2,5-dihydro-furan-2-carboxylic acid ethyl ester] | ≤ 20 µM | –
CCOC(=O)C1(CSc2ccc(F)cc2Cl)OC(=O)C(O)=C1Sc1ccc(F)cc1Cl (stereo not drawn) [3-(2-Chloro-4-fluoro-phenylsulfanyl)-2-(2-chloro-4-fluoro-phenylsulfanylmethyl)-4-hydroxy-5-oxo-2,5-dihydro-furan-2-carboxylic acid ethyl ester] | ≤ 20 µM | ≤ 30 µM
CCOC(=O)C1(CSc2nc3ccc([N+](=O)[O-])cc3s2)OC(=O)C(O)=C1Sc1nc2ccc([N+](=O)[O-])cc2s1 (stereo not drawn) [4-Hydroxy-3-(6-nitro-benzothiazol-2-ylsulfanyl)-2-(6-nitro-benzothiazol-2-ylsulfanylmethyl)-5-oxo-2,5-dihydro-furan-2-carboxylic acid ethyl ester] | ≤ 20 µM | ≤ 30 µM
CCOC(=O)C1(C[S+]([O-])c2nc3ccccc3s2)OC(=O)C(O)=C1Sc1nc2ccccc2s1 (stereo not drawn) [2-(Benzothiazole-2-sulfinylmethyl)-3-(benzothiazol-2-ylsulfanyl)-4-hydroxy-5-oxo-2,5-dihydro-furan-2-carboxylic acid ethyl ester] | ≤ 20 µM | ≤ 30 µM
